By IC50 is commonly meant the concentration at which inhibition is half-maximal. A high value points to weaker potency.

This note sets out measurements from patent US10202360B2 (CELGENE QUANTICEL RESEARCH, INC., priority 2016, dated 2019).

In the test the target is CREBBP (Homo sapiens (Human), UniProt Q92793). Description: In vitro enzyme inhibition assay - CREBBP inhibition (AlphaScreen, biotinylated H4-tetraacetyl peptide). Format: binding. The following applies: Table 28; AlphaScreen, H4-tetraacetyl peptide. The essentials:
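Displacement of 20 nM biotinylated tetraacetyl-H4 peptide from 50 nM E. coli-expressed His-CREBBP, measured by AlphaScreen after bead equilibration for 2 h.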
(Bead proximity is the source of the signal in Alpha formats.)

Chain of CREBBP (Q92793 1081-1197): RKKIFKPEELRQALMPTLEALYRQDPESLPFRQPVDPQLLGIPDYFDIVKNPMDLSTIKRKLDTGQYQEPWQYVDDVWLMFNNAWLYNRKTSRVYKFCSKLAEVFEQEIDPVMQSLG

For `Cc1cc(-c2cc(NS(=O)(=O)C(C)C)nc(Oc3ccccc3)n2)cn(C)c1=O` [Example 69, N-(6-(1,5-dimethyl-6-oxo 1,6-dihydropyridin-3-yl)-2-phenoxypyrimidin-4-yl)propane-2-sulfonamide], the IC50 is less than 500 nM. In the case of `Cc1cc(-c2cc(NS(=O)(=O)C(C)C)nc(Oc3ccc(F)cc3)n2)cn(C)c1=O` [Example 70, N-(6-(1,5-dimethyl-6-oxo-1,6-dihydropyridin-3-yl)-2-(4-fluorophenoxy)pyrimidin-4-yl)propane-2-sulfonamide] it was less than 500 nM; in that of `Cc1cccc(C)c1Oc1nc(NS(=O)(=O)C(C)C)cc(-c2cc(C)c(=O)n(C)c2)n1` [Example 71, N-(6-(1,5-dimethyl-6-oxo-1,6-dihydropyridin-3-yl)-2-(2,6-dimethylphenoxy)pyrimidin-4-yl)propane-2-sulfonamide], less than 500 nM. Consider `Cc1cc(-c2cc(N(C)S(=O)(=O)C(C)C)nc(Oc3ccc(F)cc3F)n2)cn(C)c1=O` [Example 73, N-(2-(2,4-difluorophenoxy)-6-(1,5-dimethyl-6-oxo-1,6-dihydropyridin-3-yl)pyrimidin-4-yl)-N-methylpropane-2-sulfonamide], for which the half-maximal inhibitory concentration (IC50) was less than 500 nM. The compound `CCCCS(=O)(=O)Nc1cc(-c2cc(C)c(=O)n(C)c2)nc(Oc2cnn(C)c2)n1` [Example 74, N-(6-(1,5-dimethyl-6-oxo-1,6-dihydropyridin-3-yl)-2-((1-methyl-1H-pyrazol-4-yl)oxy)pyrimidin-4-yl)butane-1-sulfonamide] yielded an IC50 of less than 500 nM. In the case of `CCCCS(=O)(=O)Nc1cc(-c2cc(C)c(=O)n(C)c2)nc(Oc2cccc3c2ccn3C)n1` [Example 75, N-(6-(1,5-dimethyl-6-oxo-1,6-dihydropyridin-3-yl)-2-((1-methyl-1H-indol-4-yl)oxy)pyrimidin-4-yl)butane-1-sulfonamide] it was less than 500 nM; in that of `Cc1cc(-c2cc(NS(=O)(=O)C(C)C)nc(Oc3cccc4c3ccn4C)n2)cn(C)c1=O` [Example 76, N-(6-(1,5-dimethyl-6-oxo-1,6-dihydropyridin-3-yl)-2-((1-methyl-1H-indol-4-yl)oxy)pyrimidin-4-yl)propane-2-sulfonamide], less than 500 nM; in that of `Cc1cc(-c2cc(NC(=O)CC(C)C)nc(Oc3ccc(F)cc3F)n2)cn(C)c1=O` [Example 77, N-(2-(2,4-difluorophenoxy)-6-(1,5-dimethyl-6-oxo-1,6-dihydropyridin-3-yl)pyrimidin-4-yl)-3-methylbutanamide], 500 to 5000 nM. For `COCCS(=O)(=O)Nc1cc(-c2cc(C)c(=O)n(C)c2)nc(Oc2c(C)cccc2C)n1` [Example 78, N-(6-(1,5-dimethyl-6-oxo-1,6-dihydropyridin-3-yl)-2-(2,6-dimethylphenoxy)pyrimidin-4-yl)-2-methoxyethane-1-sulfonamide] the value was less than 500 nM; for `CCCCC(=O)Nc1cc(-c2cc(C)c(=O)n(C)c2)nc(Oc2ccc(F)cc2F)n1` [Example 79, N-(2-(2,4-difluorophenoxy)-6-(1,5-dimethyl-6-oxo-1,6-dihydropyridin-3-yl)pyrimidin-4-yl)pentanamide], less than 500 nM; for `CCCS(=O)(=O)Nc1cc(-c2cc(C)c(=O)n(C)c2)nc(Oc2c(C)cccc2C)n1` [Example 80, N-(6-(1,5-dimethyl-6-oxo-1,6-dihydropyridin-3-yl)-2-(2,6-dimethylphenoxy)pyrimidin-4-yl)propane-1-sulfonamide], less than 500 nM. In the case of `Cc1cccc(C)c1Oc1nc(NS(=O)(=O)CCCF)cc(-c2cc(C)c(=O)n(C)c2)n1` [Example 81, N-(6-(1,5-dimethyl-6-oxo-1,6-dihydropyridin-3-yl)-2-(2,6-dimethylphenoxy)pyrimidin-4-yl)-3-fluoropropane-1-sulfonamide] it was less than 500 nM. On to `Cc1cccc(C)c1Oc1nc(NS(=O)(=O)CC2CC2)cc(-c2cc(C)c(=O)n(C)c2)n1` [Example 82, 1-cyclopropyl-N-(6-(1,5-dimethyl-6-oxo-1,6-dihydropyridin-3-yl)-2-(2,6-dimethylphenoxy)pyrimidin-4-yl)methanesulfonamide], for which the IC50 was less than 500 nM.

Regarding `Cc1cccc(C)c1Oc1nc(NS(=O)(=O)CC(C)C)cc(-c2cc(C)c(=O)n(C)c2)n1` [Example 83, N-(6-(1,5-dimethyl-6-oxo-1,6-dihydropyridin-3-yl)-2-(2,6-dimethylphenoxy)pyrimidin-4-yl)-2-methylpropane-1-sulfonamide], the IC50 was less than 500 nM. In the case of `CCC(C)S(=O)(=O)Nc1cc(-c2cc(C)c(=O)n(C)c2)nc(Oc2c(C)cccc2C)n1` (centres unmarked) [Example 84, N-(6-(1,5-dimethyl-6-oxo-1,6-dihydropyridin-3-yl)-2-(2,6-dimethylphenoxy)pyrimidin-4-yl)butane-2-sulfonamide] it was less than 500 nM; in that of `COC(C)CS(=O)(=O)Nc1cc(-c2cc(C)c(=O)n(C)c2)nc(Oc2c(C)cccc2C)n1` (centres unmarked) [Example 85, N-(6-(1,5-dimethyl-6-oxo-1,6-dihydropyridin-3-yl)-2-(2,6-dimethylphenoxy)pyrimidin-4-yl)-2-methoxypropane-1-sulfonamide], less than 500 nM; in that of `CCCCS(=O)(=O)Nc1cc(-c2cc(F)c(=O)n(C)c2)nc(Oc2c(C)cccc2C)n1` [Example 86, N-(2-(2,6-dimethylphenoxy)-6-(5-fluoro-1-methyl-6-oxo-1,6-dihydropyridin-3-yl)pyrimidin-4-yl)butane-1-sulfonamide], less than 500 nM.

As to `CCCCS(=O)(=O)Nc1cc(-c2cc(C)c(=O)n(C)c2)nc(Oc2c(C)nn(C)c2C)n1` [Example 88, N-(6-(1,5-dimethyl-6-oxo-1,6-dihydropyridin-3-yl)-2-((1,3,5-trimethyl-1H-pyrazol-4-yl)oxy)pyrimidin-4-yl)butane-1-sulfonamide], the 50% inhibitory concentration (IC50) is less than 500 nM.

Turning to `CCCCS(=O)(=O)Nc1cc(-c2cn(C)c(=O)cc2C)nc(Oc2c(C)cccc2C)n1` [Example 89, N-(6-(1,4-dimethyl-6-oxo-1,6-dihydropyridin-3-yl)-2-(2,6-dimethylphenoxy)pyrimidin-4-yl)butane-1-sulfonamide], the IC50 is less than 500 nM. As to `Cc1cc(-c2cc(NS(=O)(=O)C(C)C)cc(Oc3ccc(F)cc3F)n2)cn(C)c1=O` [Example 90, N-(6-(2,4-difluorophenoxy)-1′,5′-dimethyl-6′-oxo-1′,6′-dihydro-[2,3′-bipyridin]-4-yl)propane-2-sulfonamide], the concentration for half-maximal inhibition (IC50) is less than 500 nM. The compound `Cc1cc(-c2cc(NS(=O)(=O)C(C)C)nc(Nc3ccc(F)cc3F)n2)cn(C)c1=O` [Example 91, N-(2-((2,4-difluorophenyl)amino)-6-(1,5-dimethyl-6-oxo-1,6-dihydropyridin-3-yl)pyrimidin-4-yl)propane-2-sulfonamide] gave an IC50 of less than 500 nM. For `CCCS(=O)(=O)Nc1cc(-c2cc(C)c(=O)n(C)c2)cc(Oc2c(C)cccc2C)n1` [Example 92, N-(6′-(2,6-dimethylphenoxy)-1,5-dimethyl-6-oxo-1,6-dihydro-[3,4′-bipyridin]-2′-yl)propane-1-sulfonamide] the value was less than 500 nM. For `Cc1cc(-c2cc(NS(=O)(=O)C(C)C)nc(Cc3ccc(F)cc3F)n2)cn(C)c1=O` [Example 93, Propane-2-sulfonic acid [2-(2,4-difluoro-benzyl)-6-(1,5-dimethyl-6-oxo-1,6-dihydro-pyridin-3-yl)-pyrimidin-4-yl]-amide] the value was 500 to 5000 nM.
